Assay results: ChEMBL document CHEMBL2016545, “Discovery of S-777469: an orally available CB2 agonist as an antipruritic agent” (Bioorg Med Chem Lett, 2012)

Experiments:
Cannabinoid receptor 2 [1] = target: T1, Cannabinoid receptor 2 (Homo sapiens, UniProt P34972); test: Agonist activity at human CB2 receptor expressed in CHO cells assessed as inhibition of forskolin-induced cAMP release after 45 mins; assay type: functional, cell-based
Cannabinoid receptor 1 [2] = target: T2, Cannabinoid receptor 1 (Homo sapiens, UniProt P21554); test: Displacement of [3H]-CP55940 from human recombinant CB1 receptor after 60 mins
T2 sequence (P21554 whole entry): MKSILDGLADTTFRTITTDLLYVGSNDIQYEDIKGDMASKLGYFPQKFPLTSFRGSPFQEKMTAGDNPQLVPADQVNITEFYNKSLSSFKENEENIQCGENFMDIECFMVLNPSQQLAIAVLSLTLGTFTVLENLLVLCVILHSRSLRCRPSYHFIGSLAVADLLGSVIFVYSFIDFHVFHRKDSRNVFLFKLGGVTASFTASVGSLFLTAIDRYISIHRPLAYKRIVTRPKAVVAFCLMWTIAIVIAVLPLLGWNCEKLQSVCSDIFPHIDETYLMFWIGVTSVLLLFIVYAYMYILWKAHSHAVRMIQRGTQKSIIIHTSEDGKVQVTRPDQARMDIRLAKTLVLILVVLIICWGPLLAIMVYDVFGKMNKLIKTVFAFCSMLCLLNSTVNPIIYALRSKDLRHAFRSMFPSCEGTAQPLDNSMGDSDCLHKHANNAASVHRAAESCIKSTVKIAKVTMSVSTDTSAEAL

Cannabinoid receptor 2 [3] = target: T1, Cannabinoid receptor 2; test: Displacement of [3H]-CP55940 from human recombinant CB2 receptor after 60 mins
Cannabinoid receptor 1 [4] = target: T2, Cannabinoid receptor 1; test: Agonist activity at human CB1 receptor expressed in CHO cells assessed as inhibition of forskolin-induced cAMP release after 25 mins; assay type: functional, cell-based
Mus musculus [5] = test: Neurotoxicity in ICR mouse assessed as psychoactivity at 0.1 to 1 mg/kg, iv; assay type: toxicity, organism-based; set-up: dose 0.1-1 mg/kg, route intravenous; settings: in vivo
Mus musculus [6] = species on record: Mus musculus; test: animal or person; settings: ICR, po, 0.5 h, read-out: INH
Mus musculus [7] = test: Antipruritic activity in ICR mouse assessed as inhibition of compound 48/80-induced scratching at 1 mg/kg, po measured after 30 mins; assay type: functional; settings: 0.5 h
Mus musculus [8] = test: Antipruritic activity in ICR mouse assessed as inhibition of compound 48/80-induced scratching at 3 mg/kg, po measured after 30 mins; assay type: functional; settings: 0.5 h
Mus musculus [9] = test: Antipruritic activity in ICR mouse assessed as inhibition of compound 48/80-induced scratching at 10 mg/kg, po measured after 30 mins; assay type: functional; settings: 0.5 h
[10] = Clearance in rat at 3 mg/kg, iv; assay type: ADME, organism-based; set-up: dose 3 mg/kg, route intravenous; settings: in vivo
[11] = Clearance in beagle dog at 3 mg/kg, iv; assay type: ADME, organism-based, Canis lupus familiaris; set-up: dose 3 mg/kg, route intravenous; settings: in vivo
[12] = Clearance in cynomolgus monkey at 3 mg/kg, iv; assay type: ADME, organism-based, Macaca fascicularis; set-up: dose 3 mg/kg, route intravenous; settings: in vivo
[13] = Half life in rat at 10 mg/kg, po; assay type: ADME, organism-based; set-up: dose 10 mg/kg, route oral; settings: in vivo
[14] = Half life in beagle dog at 10 mg/kg, po; assay type: ADME, organism-based, Canis lupus familiaris; set-up: dose 10 mg/kg, route oral; settings: in vivo
[15] = Half life in cynomolgus monkey at 10 mg/kg, po; assay type: ADME, organism-based, Macaca fascicularis; set-up: dose 10 mg/kg, route oral; settings: in vivo
[16] = Volume of distribution at steady state in rat at 3 mg/kg, iv; assay type: ADME, organism-based; set-up: dose 3 mg/kg, route intravenous; settings: in vivo, read-out: Vdss
[17] = Volume of distribution at steady state in beagle dog at 3 mg/kg, iv; assay type: ADME, organism-based, Canis lupus familiaris; set-up: dose 3 mg/kg, route intravenous; settings: in vivo, read-out: Vdss
[18] = Volume of distribution at steady state in cynomolgus monkey at 3 mg/kg, iv; assay type: ADME, organism-based, Macaca fascicularis; set-up: dose 3 mg/kg, route intravenous; settings: in vivo, read-out: Vdss
[19] = Oral bioavailability in rat at 10 mg/kg; assay type: ADME, organism-based; settings: in vivo
[20] = Oral bioavailability in beagle dog at 10 mg/kg; assay type: ADME, organism-based, Canis lupus familiaris; settings: in vivo
[21] = Oral bioavailability in cynomolgus monkey at 10 mg/kg; assay type: ADME, organism-based, Macaca fascicularis; settings: in vivo

T1 sequence (P34972 whole entry): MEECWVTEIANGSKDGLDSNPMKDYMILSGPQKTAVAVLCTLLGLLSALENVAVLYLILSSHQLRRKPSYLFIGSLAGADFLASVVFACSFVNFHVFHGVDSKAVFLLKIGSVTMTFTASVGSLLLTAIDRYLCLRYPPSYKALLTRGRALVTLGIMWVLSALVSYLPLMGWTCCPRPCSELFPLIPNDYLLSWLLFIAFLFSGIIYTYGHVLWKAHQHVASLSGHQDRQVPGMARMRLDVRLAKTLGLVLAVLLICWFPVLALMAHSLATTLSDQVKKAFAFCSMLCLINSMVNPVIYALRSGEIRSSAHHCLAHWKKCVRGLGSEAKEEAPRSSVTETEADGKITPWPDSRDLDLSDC

SMILES	IC50 (Cannabinoid receptor 2 [1]) [µM]	Ki (Cannabinoid receptor 1 [2]) [µM]	Ki (Cannabinoid receptor 2 [3]) [µM]	IC50 (Cannabinoid receptor 1 [4]) [µM]	further results
O=C(NC1(C(=O)O)CCCCCCC1)c1cc2c(n(CC3CCCCC3)c1=O)CCCCCC2	0.001	–	–	–	–
O=C(O)CNC(=O)c1cc2c(n(CC3CCCCC3)c1=O)CCCCCC2	–	1.06	0.177	–	–
O=C(NC1(C(=O)O)CCCC1)c1cc2c(n(CC3CCCCC3)c1=O)CCCCCC2	0.014	0.258	0.056	0.113	–
O=C(NC1(C(=O)O)CCCCC1)c1cc2c(n(CC3CCCCC3)c1=O)CCCCCC2	0.007	0.181	0.0067	0.076	Activity (Mus musculus [5]): Non-toxic
CCCCn1c2c(cc(C(=O)NC3(C(=O)O)CCCCC3)c1=O)CCCCCC2	0.007	> 5	0.056	> 2	–
O=C(NC1(C(=O)O)CCCCC1)c1cc2c(n(CC3CCCO3)c1=O)CCCCCC2 (stereo not given)	–	> 5	0.247	–	–
CCN1CCCC1Cn1c2c(cc(C(=O)NC3(C(=O)O)CCCCC3)c1=O)CCCCCC2 (stereo not given)	–	–	2.11	–	–
O=C(NC1(C(=O)O)CCCCC1)c1cc2c(n(Cc3ccc(F)cc3)c1=O)CCCCCC2	0.009	0.266	0.016	0.514	–
N#Cc1ccc(Cn2c3c(cc(C(=O)NC4(C(=O)O)CCCCC4)c2=O)CCCCCC3)cc1	–	3.95	0.144	–	–
CCCCn1c(CC)c(C)cc(C(=O)NC2(C(=O)O)CCCCC2)c1=O	–	–	0.348	–	–
CCCCn1c(CCC)c(Br)cc(C(=O)NC2(C(=O)O)CCCCC2)c1=O	–	> 5	0.382	–	–
CCCc1c(CC)cc(C(=O)NC2(C(=O)O)CCCCC2)c(=O)n1Cc1ccc(F)cc1	–	> 5	0.263	–	–
COCCn1c2c(cc(C(=O)NC3(C(=O)O)CCCCC3)c1=O)CCCCCC2	–	> 5	0.294	–	–
CC(C)(C(=O)O)c1ccc(C(O)CCCN2CCC(C(O)(c3ccccc3)c3ccccc3)CC2)cc1 (stereo not given) [FEXOFENADINE]	–	–	–	–	inhibition in vivo at 30 mg/kg (Mus musculus [6]): 39%
CCc1c(C)cc(C(=O)NC2(C(=O)O)CCCCC2)c(=O)n1Cc1ccc(F)cc1 [S-777469]	–	4.07	–	> 2	inhibition in vivo at 1 mg/kg (Mus musculus [7]): 46%; inhibition in vivo at 3 mg/kg (Mus musculus [8]): 48%; inhibition in vivo at 10 mg/kg (Mus musculus [9]): 59%; clearance [10]: 11.3 mL/min/kg; clearance [11]: 6 mL/min/kg; clearance [12]: 13.6 mL/min/kg; half-life [13]: 6.2 h; half-life [14]: 12.8 h; half-life [15]: 7.43 h; Vd [16]: 1.9 L/kg; Vd [17]: 1.23 L/kg; Vd [18]: 0.87 L/kg; bioavailability [19]: 37.9%; bioavailability [20]: 18.7%; bioavailability [21]: 9.01%
